Each compound was assayed against T1, chicken gizzard smooth muscle myosin subfragment-1 chemically crosslinked to cardiac or skeletal actin (Gallus gallus, UniProt P10587) (assay: Smooth muscle myosin ATPase dose response assay (pyruvate kinase/horseradish peroxidase/pyruvate oxidase-coupled, amplex red fluorescence)). Settings: read-out: IC50 Arithmetic Mean.
T1 construct: chicken gizzard smooth muscle myosin subfragment-1; from tissue; host or cells: chicken gizzard
Format: biochemical
In short: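 Inhibition is measured in a peroxidase/pyruvate oxidase-linked format at pH 7.00 and 22° C, 0.15 mM ATP final. Myosin input is titrated to a target turnover since active fraction differs between preparations.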

T1 sequence (P02607 2-151): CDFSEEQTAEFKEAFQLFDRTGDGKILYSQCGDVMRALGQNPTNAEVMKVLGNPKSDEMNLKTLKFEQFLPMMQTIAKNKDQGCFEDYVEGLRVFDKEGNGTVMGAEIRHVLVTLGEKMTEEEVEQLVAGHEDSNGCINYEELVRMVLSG
T1 sequence (P10587 84-789): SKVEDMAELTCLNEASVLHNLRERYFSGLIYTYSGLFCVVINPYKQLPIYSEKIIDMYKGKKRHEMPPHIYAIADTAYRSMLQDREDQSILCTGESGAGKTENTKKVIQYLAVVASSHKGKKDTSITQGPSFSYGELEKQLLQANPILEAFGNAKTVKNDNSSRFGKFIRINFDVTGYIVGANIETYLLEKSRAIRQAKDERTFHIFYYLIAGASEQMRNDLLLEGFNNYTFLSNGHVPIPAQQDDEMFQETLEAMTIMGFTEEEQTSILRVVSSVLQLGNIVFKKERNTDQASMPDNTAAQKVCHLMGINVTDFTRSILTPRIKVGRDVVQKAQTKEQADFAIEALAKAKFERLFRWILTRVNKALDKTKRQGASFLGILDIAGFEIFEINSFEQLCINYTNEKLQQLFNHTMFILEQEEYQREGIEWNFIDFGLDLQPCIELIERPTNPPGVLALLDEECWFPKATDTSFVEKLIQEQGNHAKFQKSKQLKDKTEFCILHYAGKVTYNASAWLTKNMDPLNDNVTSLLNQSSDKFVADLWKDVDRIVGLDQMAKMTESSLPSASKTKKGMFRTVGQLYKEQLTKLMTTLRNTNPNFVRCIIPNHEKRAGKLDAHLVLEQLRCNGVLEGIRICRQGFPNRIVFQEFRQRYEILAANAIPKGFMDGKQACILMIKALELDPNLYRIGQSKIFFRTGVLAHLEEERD

Question: `N[C@@H](CO)C(=O)N1CCCC1CNC(=O)c1cc(F)c(-c2cc[nH]n2)nc1NCCc1cccc(F)c1` (stereo partly drawn) [N-{[(2R)-1-((2S)-2-amino-3-hydroxypropanoyl)pyrrolidin-2-yl]methyl}(5-fluoro-2-{[2-(3-fluorophenyl)ethyl]amino}-6-pyrazol-3-yl(3-pyridyl))carboxamide] was tested. Which IC50 did it give?
Answer: 269 nM

Question: How did the IC50 turn out when `N[C@@H](CO)C(=O)N1CCC[C@@H]1CNC(=O)c1cc(F)c(-c2cn[nH]c2)nc1NCCc1cccc(F)c1` [N-{[(2R)-1-((2S)-2-amino-3-hydroxypropanoyl)pyrrolidin-2-yl]methyl}(5-fluoro-2-{[2-(3-fluorophenyl)ethyl]amino}-6-pyrazol-4-yl(3-pyridyl))carboxamide] was run?
Answer: 59 nM

Question: How did the IC50 turn out when `N#Cc1ccccc1-c1ccc(C(=O)NC[C@H]2CCCN2C(=O)[C@@H](N)CO)c(NCCc2cccc(F)c2)n1` [N-{[(2R)-1-((2S)-2-amino-3-hydroxypropanoyl)pyrrolidin-2-yl]methyl}(6-(2-cyanophenyl)-2-{[2-(3-fluorophenyl)ethyl]amino}(3-pyridyl))carboxamide] was run?
Answer: 173 nM

Question: Which IC50 does the source give for `COC[C@H](N)C(=O)N1CCC[C@@H]1CNC(=O)c1ccc(-c2ccccc2C#N)nc1NCCc1cccc(F)c1` [N-{[(2R)-1-((2S)-2-amino-3-methoxypropanoyl)pyrrolidin-2-yl]methyl}(6-(2-cyanophenyl)-2-{[2-(3-fluorophenyl)ethyl]amino}(3-pyridyl))carboxamide] here?
Answer: 193 nM

Question: `C[C@H](N)C(=O)N1CCCC[C@@H]1CNC(=O)c1ccc(-c2ccccc2C#N)nc1NCCc1cccc(F)c1` [N-{[(2R)-1-((2S)-2-aminopropanoyl)(2-piperidyl)]methyl}(6-(2-cyanophenyl)-2-{[2-(3-fluorophenyl)ethyl]amino}(3-pyridyl))carboxamide] was tested. Which IC50 did it give?
Answer: 52 nM

Question: Which IC50 does the source give for `C[C@H](N)C(=O)N1CCC[C@@H]1CNC(=O)c1cc(F)c(-c2cnn(C)c2)nc1NCCc1cccc(F)c1` [N-{[(2R)-1-((2S)-2-aminopropanoyl)pyrrolidin-2-yl]methyl}(5-fluoro-2-{[2-(3-fluorophenyl)ethyl]amino}-6-(1-methylpyrazol-4-yl)(3-pyridyl))carboxamide] here?
Answer: 99 nM

Question: Which IC50 does the source give for `C[C@H](N)C(=O)N1CCCC1CNC(=O)c1cc(F)c(-c2cc[nH]n2)nc1NCCc1cccc(F)c1` (stereo partly drawn) [N-{[(2R)-1-((2S)-2-aminopropanoyl)pyrrolidin-2-yl]methyl}(5-fluoro-2-{[2-(3-fluorophenyl)ethyl]amino}-6-pyrazol-3-yl(3-pyridyl))carboxamide] here?
Answer: 314 nM

Question: How did the IC50 turn out when `C[C@H](N)C(=O)N1CCC[C@@H]1CNC(=O)c1ccc(-c2ccccc2C#N)nc1NCCc1cccc(F)c1` [N-{[(2R)-1-((2S)-2-aminopropanoyl)pyrrolidin-2-yl]methyl}(6-(2-cyanophenyl)-2-{[2-(3-fluorophenyl)ethyl]amino}(3-pyridyl))carboxamide] was run?
Answer: 53 nM

Question: For `CNC(=O)N1CCC[C@@H]1CNC(=O)c1ccc(-c2ccccc2C#N)nc1NCCc1cccc(F)c1` [N-{[(2R)-1-(N-methylcarbamoyl)pyrrolidin-2-yl]methyl}(6-(2-cyanophenyl)-2-{[2-(3-fluorophenyl)ethyl]amino}(3-pyridyl))carboxamide], which IC50 is on record?
Answer: 307 nM

Question: With `CCS(=O)(=O)N1CCNC[C@@H]1CNC(=O)c1ccc(-c2ccccc2C#N)nc1NCCc1cccc(F)c1` [N-{[(2R)-1-(ethylsulfonyl)piperazin-2-yl]methyl}(6-(2-cyanophenyl)-2-{[2-(3-fluorophenyl)ethyl]amino}(3-pyridyl))carboxamide] as the compound, how does the IC50 read?
Answer: 16800 nM

Question: Which IC50 does the source give for `CS(=O)(=O)N1CC[C@@H]1CNC(=O)c1ccc(-c2ccccc2C#N)nc1NCCc1cccc(F)c1` [N-{[(2R)-1-(methylsulfonyl)azetidin-2-yl]methyl}(6-(2-cyanophenyl)-2-{[2-(3-fluorophenyl)ethyl]amino}(3-pyridyl))carboxamide] here?
Answer: 1520 nM

Question: With `CS(=O)(=O)N1CCC[C@@H]1CNC(=O)c1ccc(-c2ccccc2C#N)nc1NCCc1cccc(F)c1` [N-{[(2R)-1-(methylsulfonyl)pyrrolidin-2-yl]methyl}(6-(2-cyanophenyl)-2-{[2-(3-fluorophenyl)ethyl]amino}(3-pyridyl))carboxamide] as the compound, how does the IC50 read?
Answer: 1450 nM

Question: `N#Cc1ccccc1-c1ccc(C(=O)NC[C@@H]2CN(CCN)CC(=O)N2)c(NCCc2cccc(F)c2)n1` [N-{[(2R)-4-(2-aminoethyl)-6-oxopiperazin-2-yl]methyl}(6-(2-cyanophenyl)-2-{[2-(3-fluorophenyl)ethyl]amino}(3-pyridyl))carboxamide] was tested. Which IC50 did it give?
Answer: 8470 nM

Question: With `N#Cc1ccccc1-c1ccc(C(=O)NC[C@@H]2CN(CCCN)CC(=O)N2)c(NCCc2cccc(F)c2)n1` [N-{[(2R)-4-(3-aminopropyl)-6-oxopiperazin-2-yl]methyl}(6-(2-cyanophenyl)-2-{[2-(3-fluorophenyl)ethyl]amino}(3-pyridyl))carboxamide] as the compound, how does the IC50 read?
Answer: 4520 nM

Question: Which IC50 does the source give for `N#Cc1ccccc1-c1ccc(C(=O)NC[C@@H]2CCCCN2C(=O)CN)c(NCCc2cccc(F)c2)n1` [N-{[(2S)-1-(2-aminoacetyl)(2-piperidyl)]methyl}(6-(2-cyanophenyl)-2-{[2-(3-fluorophenyl)ethyl]amino}(3-pyridyl))carboxamide] here?
Answer: 74 nM

Question: How did the IC50 turn out when `CN1CCN(C(=O)CN)[C@@H](CNC(=O)c2ccc(-c3ccccc3C#N)nc2NCCc2cccc(F)c2)C1` [N-{[(2S)-1-(2-aminoacetyl)-4-methylpiperazin-2-yl]methyl}(6-(2-cyanophenyl)-2-{[2-(3-fluorophenyl)ethyl]amino}(3-pyridyl))carboxamide] was run?
Answer: 1280 nM

Question: How did the IC50 turn out when `N#Cc1ccccc1-c1ccc(C(=O)NC[C@@H]2CCCN2C(=O)CN)c(NCCc2cccc(F)c2)n1` [N-{[(2S)-1-(2-aminoacetyl)pyrrolidin-2-yl]methyl}(6-(2-cyanophenyl)-2-{[2-(3-fluorophenyl)ethyl]amino}(3-pyridyl))carboxamide] was run?
Answer: 995 nM

Question: For `N#Cc1ccccc1-c1ccc(C(=O)NC[C@@H]2CCC(=O)N2CCN)c(NCCc2cccc(F)c2)n1` [N-{[(2S)-1-(2-aminoethyl)-5-oxopyrrolidin-2-yl]methyl}(6-(2-cyanophenyl)-2-{[2-(3-fluorophenyl)ethyl]amino}(3-pyridyl))carboxamide], which IC50 is on record?
Answer: 917 nM

Question: For `N#Cc1ccccc1-c1ccc(C(=O)NC[C@@H]2CCCCN2C(=O)CCN)c(NCCc2cccc(F)c2)n1` [N-{[(2S)-1-(3-aminopropanoyl)(2-piperidyl)]methyl}(6-(2-cyanophenyl)-2-{[2-(3-fluorophenyl)ethyl]amino}(3-pyridyl))carboxamide], which IC50 is on record?
Answer: 109 nM

Question: For `CN1CCN(C(=O)CCN)[C@@H](CNC(=O)c2ccc(-c3ccccc3C#N)nc2NCCc2cccc(F)c2)C1` [N-{[(2S)-1-(3-aminopropanoyl)-4-methylpiperazin-2-yl]methyl}(6-(2-cyanophenyl)-2-{[2-(3-fluorophenyl)ethyl]amino}(3-pyridyl))carboxamide], which IC50 is on record?
Answer: 2390 nM

Question: With `N#Cc1ccccc1-c1ccc(C(=O)NC[C@@H]2CCCN2C(=O)CCN)c(NCCc2cccc(F)c2)n1` [N-{[(2S)-1-(3-aminopropanoyl)pyrrolidin-2-yl]methyl}(6-(2-cyanophenyl)-2-{[2-(3-fluorophenyl)ethyl]amino}(3-pyridyl))carboxamide] as the compound, how does the IC50 read?
Answer: 1860 nM

Question: How did the IC50 turn out when `N#Cc1ccccc1-c1ccc(C(=O)NC[C@@H]2CCC(=O)N2CCCN)c(NCCc2cccc(F)c2)n1` [N-{[(2S)-1-(3-aminopropyl)-5-oxopyrrolidin-2-yl]methyl}(6-(2-cyanophenyl)-2-{[2-(3-fluorophenyl)ethyl]amino}(3-pyridyl))carboxamide] was run?
Answer: 431 nM

Question: Which IC50 does the source give for `CN1CCN(C(=O)CCCN)[C@@H](CNC(=O)c2ccc(-c3ccccc3C#N)nc2NCCc2cccc(F)c2)C1` [N-{[(2S)-1-(4-aminobutanoyl)-4-methylpiperazin-2-yl]methyl}(6-(2-cyanophenyl)-2-{[2-(3-fluorophenyl)ethyl]amino}(3-pyridyl))carboxamide] here?
Answer: 2320 nM

Question: For `N#Cc1ccccc1-c1ccc(C(=O)NC[C@@H]2CCCN2C(=O)CCCN)c(NCCc2cccc(F)c2)n1` [N-{[(2S)-1-(4-aminobutanoyl)pyrrolidin-2-yl]methyl}(6-(2-cyanophenyl)-2-{[2-(3-fluorophenyl)ethyl]amino}(3-pyridyl))carboxamide], which IC50 is on record?
Answer: 1270 nM

Question: `CS(=O)(=O)N1CCCC[C@H]1CNC(=O)c1ccc(-c2ccccc2C#N)nc1NCCc1cccc(F)c1` [N-{[(2S)-1-(methylsulfonyl)(2-piperidyl)]methyl}(6-(2-cyanophenyl)-2-{[2-(3-fluorophenyl)ethyl]amino}(3-pyridyl))carboxamide] was tested. Which IC50 did it give?
Answer: 1630 nM

Question: With `CN1CCN(C(=O)CN)C[C@@H]1CNC(=O)c1ccc(-c2ccccc2C#N)nc1NCCc1cccc(F)c1` [N-{[(2S)-4-(2-aminoacetyl)-1-methylpiperazin-2-yl]methyl}(6-(2-cyanophenyl)-2-{[2-(3-fluorophenyl)ethyl]amino}(3-pyridyl))carboxamide] as the compound, how does the IC50 read?
Answer: 6970 nM

Question: For `N#Cc1ccccc1-c1ccc(C(=O)NC[C@H]2CN(C(=O)CN)CCN2)c(NCCc2cccc(F)c2)n1` [N-{[(2S)-4-(2-aminoacetyl)piperazin-2-yl]methyl}(6-(2-cyanophenyl)-2-{[2-(3-fluorophenyl)ethyl]amino}(3-pyridyl))carboxamide], which IC50 is on record?
Answer: 8880 nM

Question: With `N#Cc1ccccc1-c1ccc(C(=O)NC[C@H]2CN(CCN)CC(=O)N2)c(NCCc2cccc(F)c2)n1` [N-{[(2S)-4-(2-aminoethyl)-6-oxopiperazin-2-yl]methyl}(6-(2-cyanophenyl)-2-{[2-(3-fluorophenyl)ethyl]amino}(3-pyridyl))carboxamide] as the compound, how does the IC50 read?
Answer: 623 nM

Question: `CN1CCN(C(=O)CCN)C[C@@H]1CNC(=O)c1ccc(-c2ccccc2C#N)nc1NCCc1cccc(F)c1` [N-{[(2S)-4-(3-aminopropanoyl)-1-methylpiperazin-2-yl]methyl}(6-(2-cyanophenyl)-2-{[2-(3-fluorophenyl)ethyl]amino}(3-pyridyl))carboxamide] was tested. Which IC50 did it give?
Answer: 17000 nM

Question: For `N#Cc1ccccc1-c1ccc(C(=O)NC[C@H]2CN(C(=O)CCN)CCN2)c(NCCc2cccc(F)c2)n1` [N-{[(2S)-4-(3-aminopropanoyl)piperazin-2-yl]methyl}(6-(2-cyanophenyl)-2-{[2-(3-fluorophenyl)ethyl]amino}(3-pyridyl))carboxamide], which IC50 is on record?
Answer: 11200 nM
